Converted amounts (≈) assume the structure as drawn. “Also recorded” adds a separate entry of the source. Like-named read-outs stand apart in the source and are kept apart here.
What was measured:
[1] = cited from earlier work
[2] = solvents named; cited from earlier work
[3] = cited from earlier work; remark: listed apart in the source
[4] = Example 1: oxygen scavenging in deionized water, impact of temperature and activator; details: for dissolved oxygen scavenged: absence of catalyst, after 6 h, pH ~6.4, deionized water; for dissolved oxygen scavenged / time until all detectable dissolved oxygen was scavenged: 200 ppm; for time until all detectable dissolved oxygen was scavenged: with activator CuSO4·5H2O 10 ppm, pH ~6.4
Experimental: To prepare the experiment, 500 mL of deionized water (saturated with dissolved oxygen) was placed in a 3-neck round bottom flask, and a calibrated dissolved oxygen probe was inserted into the center neck. FIG. 5 provides picture 500 of the experiment setup. The water was stirred magnetically, and the pH and temperature were adjusted to the indicated values. Temperature was controlled by heating in a water bath, and pH was adjusted to ˜6.4 with dilute hydrogen chloride (HCl). […] The corrosion-inhibiting agent and activator (if used) were injected via micropipette through one of the side necks in the flask. […] The flask was then sealed and dissolved oxygen was monitored continuously as a function of time.

[5] = Example 6: oxygen scavenging in deionized water with and without P110 steel coupon
Experimental: For a first test, no steel coupon was present but for a second test, a P110 steel coupon was suspended in the water. The dissolved oxygen was measured as a function of time at room temperature (˜ 70° F.) for both tests. FIG. 10 provides a picture 1000 of the second test in which the steel coupon was submerged in the deionized water within the glass vessel.
At the 180 min mark, the temperature was increased from 70° F. to 100° F. in both tests.

[6] = second test, P110 steel coupon present, 200 ppm, ~70° F.

**Q.** For O=S([O-])O.[Na+] [Sodium Bisulfite], which “~pKa” value [1] is on record?
**A.** The value was ~7.

**Q.** What about the “~pKa” value ([1]; listed as sodium bisulfite) of the same compound?
**A.** The value was ~7.

**Q.** Which “~pKa” value [1] does the source give for O=S([O-])S(=O)(=O)[O-].[Na+].[Na+] [Sodium Metabisulfite, reference compound] here?
**A.** The value was ~1.8.

**Q.** And the “Solubility in Other Solvents” value [2]?
**A.** The value was “Glycerol,; also recorded: ethanol”.

**Q.** And the “Solubility in Water” value [3]?
**A.** Its value is 653 mg/mL.

**Q.** Which results are given for O=C1O[C@H]([C@@H](O)CO)C(O)=C1O [Ascorbic Acid]?
**A.** reaction with dissolved oxygen (in words) ([4]; absence of activator, FIG. 6 solid lines): relatively sluggish; dissolved oxygen scavenged ([4]; 100° F.): approximately 35%; dissolved oxygen scavenged ([4]; 135° F.): ~93%; reaction rate with dissolved oxygen (in words) ([4]; copper catalyst (CuSO4·5H2O) added, FIG. 6 dashed lines): significant increase in reaction rate; time until all detectable dissolved oxygen was scavenged ([4]; 100° F.): ≤ 2 min; time until all detectable dissolved oxygen was scavenged ([4]; ambient temperature (72° F.)): ≤ 15 min; dissolved oxygen left behind ([5]; after temperature increased from 70° F. to 100° F. at the 180 min mark): ~0.37 ppm; dissolved oxygen after bolus of copper catalyst ([5]; copper catalyst (10 ppm) injected at the 235 min mark, 100° F.): non-detectable levels; dissolved oxygen concentration after 4 h ([5]; first test without coupon, 200 ppm, dropped from 9.05 ppm, room temperature (~70° F.)): 5.23 ppm; reaction with dissolved oxygen (in words) ([5]; first test without coupon, 200 ppm, ~70° F.): only a slow reaction was observed; rate of reaction with dissolved oxygen (in words) [5, 6]: increased significantly; time after which the scavenging reaction stalled [5, 6]: 180 min

**Q.** Which “~pKa” value [1] does the source give for NN [Hydrazine] here?
**A.** Its value is 8-9.

**Q.** And the “Solubility in Other Solvents” value [2]?
**A.** Its value is “Ethanol,; also recorded: methanol”.

**Q.** What about the “Solubility in Water (in words)” value [3] of the same compound?
**A.** The value was “Miscible”.

**Q.** With CCC(C)=NO [Methylethylketoxime (MEKO), Methylethylketoxime] as the compound, how does the “Solubility in Other Solvents” value [2] read?
**A.** Its value is “Ethanol”.

**Q.** And the “Solubility in Water (in words)” value [3]?
**A.** The value was “Miscible”.

**Q.** Which “~pKa” value [1] does the source give for O=S([O-])([O-])=S.[Na+].[Na+] [Sodium Thiosulfate] here?
**A.** Its value is 1.74.

**Q.** For CCN(O)CC [Diethylhydroxylamine (DEHA), diethylhydroxylamine], which “~pKa” value [1] is on record?
**A.** The value was 5.7.

**Q.** And the “Solubility in Water (in words)” value [3]?
**A.** The value was “Miscible”.

**Q.** For O=S([O-])[O-].[Na+].[Na+] [Sodium Sulfite], which “~pKa” value [1] is on record?
**A.** The value was ~9.

**Q.** And the “~pKa” value ([1]; listed as sodium sulfite)?
**A.** The value was ~9.

**Q.** Which results are given for Oc1ccc(O)cc1 [Hydroquinone (HQ), Hydroquinone]?
**A.** ~pKa [1]: 9.9; Solubility in Other Solvents [2]: Ethanol,; also recorded: acetone; Solubility in Water [3]: 59 mg/mL (≈ 536 mM)

**Q.** Which “~pKa” value [1] does the source give for NNC(=O)NN [Carbohydrazide] here?
**A.** Its value is 11.81.

**Q.** What about the “Solubility in Other Solvents” value [2] of the same compound?
**A.** Its value is “ethanol”.

**Q.** What about the “Solubility in Water (in words)” value [3] of the same compound?
**A.** The value was “Very”.

**Q.** With N.O=S(O)O [Ammonium bisulfite] as the compound, how does the “~pKa” value [1] read?
**A.** The value was 7.

Reference: patent US20250354049A1, “CORROSION-INHIBITING AGENTS FOR REDUCING DISSOLVED OXYGEN CONCENTRATIONS WITHIN UPSTREAM OILFIELD SYSTEMS” (Finoric LLC, priority 2024, published 2025)
